Source: patent US4175081A, “5-Substituted thiadiazole ureas” (priority 1977, dated 1979)

How the values were obtained:
[1] = tested on: Bean (BN); experiment: Post-emergence herbicide test; assay type: in vivo, Phaseolus vulgaris var. Black Valentine; details: Phaseolus vulgaris, post-emergence, 336 h, two weeks after treatment
Method in brief: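 Snapbean (Phaseolus vulgaris var. Black Valentine) was tested post-emergence. Four seeds were sown in 3' plastic pots of potting soil at a depth equal to the seed diameter, then sub-irrigated in greenhouse trays. Planting dates were staggered so plants were sprayed once primary leaves had expanded, with the growing point at the primary leaf nodes.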

[2] = tested on: Barnyard grass (BG); experiment: Pre-emergence herbicide test; assay type: in vivo; details: Echinochloa crus-galli, 336 h, two weeks after treatment
Method in brief: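 Barnyard grass surface-seeded in potting soil and sprayed pre-emergence one day after seeding, at 8 or 4 lb compound/acre in 38 gal/acre spray volume. Pots kept in greenhouse with sub-irrigation only; injury or control rated visually two weeks after treatment.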

[3] = tested on: Turnip (TP); experiment: Pre-emergence herbicide test; assay type: in vivo, Brassica sp.; details: Brassica rapa, pre-emergence, 336 h, two weeks after treatment
Method in brief: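 Turnip (Brassica sp.) seeds were surface sown in 3' plastic pots of potting soil, covered with a thin layer of screened soil, and sub-irrigated in greenhouse trays. Pots were seeded one day ahead of treatment, sprayed pre-emergence under a hood with a fixed nozzle and moving belt, then kept in the greenhouse.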

[4] = tested on: Turnip (TP); experiment: Post-emergence herbicide test; assay type: in vivo, Brassica sp.; details: Brassica rapa, post-emergence, 336 h, two weeks after treatment
Method in brief: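 A greenhouse post-emergence herbicide test on turnip. Seeds were sown on the surface of potting soil in 3' plastic pots, lightly covered with screened soil and watered from below. Planting was timed so seedlings had 1 or 2 true leaves above the cotyledons at spraying, done in a hood with a fixed nozzle. Control or injury was scored by eye after two weeks.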

[5] = tested on: Crabgrass (CG); experiment: Pre-emergence herbicide test; assay type: in vivo, Digitaria sanquinalis; details: Digitaria sanguinalis, pre-emergence, 336 h, two weeks after treatment
Method in brief: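 Crabgrass (Digitaria sanquinalis) was surface seeded in 3' plastic pots of potting soil, covered with screened soil, and watered by sub-irrigation in greenhouse trays. Pots were seeded one day before spraying in a hood with a moving belt and fixed nozzle. Plants stayed in the greenhouse on sub-irrigation, and pre-emergence control was rated visually two weeks after treatment.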

[6] = tested on: Bean (BN); experiment: Pre-emergence herbicide test; assay type: in vivo, Phaseolus vulgaris var. Black Valentine; details: Phaseolus vulgaris, 336 h, two weeks after treatment
Procedure: Bean (BN)--Phaseolus vulgaris var. Black Valentine
(§1) All crop and weed species were planted individually in 3' plastic pots containing potting soil. Four seeds each of corn, cotton, and snapbeans were seeded to a depth equal to the diameter of the seed. All other species were surface seeded and sprinkled with screened soil in an amount sufficient to cover the seed. Immediately after planting, all pots were watered by sub-irrigation in greenhouse trays. Pots for the pre-emergence phase were seeded one day before treatment.
(§2) Compounds were tested at rates of application equivalent to 8 lbs. of actual compound per acre in a spray volume of 38 gallons per acre. Spray hood constants required to deliver the above volume are as follows:
(§3) Formulations for spray applications were prepared in 50 ml volumes with the following three components:
(§4) Formulations for the 4 lbs/acre rate were prepared by adjusting the amount of active ingredient accordingly.
(§5) Spray applications were made in a hood containing a removable belt and fixed spray nozzle. For passage through the spray hood, one pot of each specie (pre-emergence phase) was placed on the rear half of the flat. Treatments were removed to the greenhouse after spraying. Watering during the observation period was done only by sub-irrigation.
(§6) Two weeks after treatment, pre- and post-emergence injury or control was visually rated, and the results were as shown in the following tables. Pre-emergence data are provided in TABLE III and post-emergence data are provided in TABLE IV, for compounds having the formula illustrated in TABLE I. Correspondingly, pre-emergence and post-emergence data, respectively, are set forth in TABLES V AND VI, for compounds having the formula illustrated in TABLE II.

[7] = tested on: Cotton (CT); experiment: Pre-emergence herbicide test; assay type: in vivo, Gossypium hirsutum var. DPL smooth leaf; details: Gossypium hirsutum, 336 h, two weeks after treatment
Method in brief: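 Crop and weed species seeded one day before treatment, then sprayed pre-emergence at 8 lbs actual compound per acre (also 4 lbs/acre formulations) in 38 gallons per acre. Pots kept in greenhouse with sub-irrigation only; injury or control visually rated two weeks after treatment.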

[8] = tested on: Johnson grass (JG); experiment: Pre-emergence herbicide test; assay type: in vivo, Sorgum helepense; details: Sorghum halepense, 336 h, two weeks after treatment
Method in brief: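 Pots seeded one day before spraying; compound applied pre-emergence at 8 lbs/acre (or 4 lbs/acre) in 38 gallons/acre spray volume. Sub-irrigated in greenhouse; injury/control rated visually two weeks after treatment.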

[9] = tested on: Amaranth pigweed (PW); experiment: Pre-emergence herbicide test; assay type: in vivo, Amaranthus retroflexus; details: 336 h, two weeks after treatment
Procedure: as §1, §2, §3, §4, §5, §6

[10] = tested on: Crabgrass (CG); experiment: Post-emergence herbicide test; assay type: in vivo, Digitaria sanquinalis; details: Digitaria sanguinalis, post-emergence, 336 h, two weeks after treatment
Method in brief: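 Crabgrass (Digitaria sanquinalis) was surface seeded individually in 3' plastic pots of potting soil, covered with screened soil, and watered by sub-irrigation in greenhouse trays. Planting was staggered so seedlings reached the target stage together. Post-emergence sprays were applied in a hood with a removable belt and fixed nozzle, and control was visually rated two weeks after treatment.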

[11] = tested on: Cotton (CT); experiment: Post-emergence herbicide test; assay type: in vivo, Gossypium hirsutum var. DPL smooth leaf; details: Gossypium hirsutum, post-emergence, 336 h, two weeks after treatment
Method in brief: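 Cotton (Gossypium hirsutum var. DPL smooth leaf) was grown in 3' plastic pots of potting soil, four seeds per pot, planted at a depth equal to the seed diameter and watered by sub-irrigation. At the stage of expanded cotyledons with the first true leaf 1' long, plants were sprayed post-emergence in a hood with a fixed nozzle over a moving belt. Percent control was rated visually two weeks later.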

[12] = tested on: Corn (CN); experiment: Pre-emergence herbicide test; assay type: in vivo; details: Zea mays, 336 h, two weeks after treatment
Method in brief: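 Four corn seeds per pot, sown at seed-diameter depth one day before spraying, got soil surface treatment at 8 lbs/acre (4 lbs/acre formulations also prepared) in 38 gallons/acre. Pots were greenhouse-held with sub-irrigation only. Injury or control was scored visually two weeks after treatment.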

CCS(=O)(=O)c1nnc(N(C)C(=O)NC)s1 [Example 91]
90%: pest or weed control at 2241.7 g/ha ([2]; 2 lb/acre) | pest or weed control at 2241.7 g/ha ([3]; 2 lb/acre) | pest or weed control at 1120.85 g/ha ([5]; 1 lb/acre) | pest or weed control at 2241.7 g/ha ([5]; 2 lb/acre) | pest or weed control at 4483.4 g/ha ([7]; 4 lb/acre) | pest or weed control at 1120.85 g/ha ([9]; 1 lb/acre)
100%: pest or weed control at 560.425 g/ha ([1]; 0.5 lb/acre) | pest or weed control at 1120.85 g/ha ([1]; 1 lb/acre) | pest or weed control at 2241.7 g/ha ([1]; 2 lb/acre) | pest or weed control at 4483.4 g/ha ([1]; 4 lb/acre) | pest or weed control at 4483.4 g/ha ([2]; 4 lb/acre) | pest or weed control at 4483.4 g/ha ([3]; 4 lb/acre) | pest or weed control at 560.425 g/ha ([4]; 0.5 lb/acre) | pest or weed control at 1120.85 g/ha ([4]; 1 lb/acre) | pest or weed control at 2241.7 g/ha ([4]; 2 lb/acre) | pest or weed control at 4483.4 g/ha ([4]; 4 lb/acre) | pest or weed control at 4483.4 g/ha ([5]; 4 lb/acre) | pest or weed control at 4483.4 g/ha ([6]; 4 lb/acre) | pest or weed control at 4483.4 g/ha ([8]; 4 lb/acre) | pest or weed control at 2241.7 g/ha ([9]; 2 lb/acre) | pest or weed control at 4483.4 g/ha ([9]; 4 lb/acre) | pest or weed control at 4483.4 g/ha ([10]; 4 lb/acre) | pest or weed control at 560.425 g/ha ([11]; 0.5 lb/acre) | pest or weed control at 1120.85 g/ha ([11]; 1 lb/acre) | pest or weed control at 2241.7 g/ha ([11]; 2 lb/acre) | pest or weed control at 4483.4 g/ha ([11]; 4 lb/acre)
50%: pest or weed control at 1120.85 g/ha ([7]; 1 lb/acre) | pest or weed control at 2241.7 g/ha ([7]; 2 lb/acre) | pest or weed control at 560.425 g/ha ([8]; 0.5 lb/acre) | pest or weed control at 1120.85 g/ha ([8]; 1 lb/acre) | pest or weed control at 1120.85 g/ha ([12]; 1 lb/acre) | pest or weed control at 2241.7 g/ha ([12]; 2 lb/acre)
30%: pest or weed control at 560.425 g/ha ([2]; 0.5 lb/acre) | pest or weed control at 560.425 g/ha ([7]; 0.5 lb/acre)
70%: pest or weed control at 1120.85 g/ha ([6]; 1 lb/acre) | pest or weed control at 2241.7 g/ha ([6]; 2 lb/acre) | pest or weed control ([10]; 2 lb/acre)
60%: pest or weed control at 1120.85 g/ha ([2]; 1 lb/acre) | pest or weed control at 560.425 g/ha ([3]; 0.5 lb/acre) | pest or weed control at 1120.85 g/ha ([3]; 1 lb/acre) | pest or weed control at 2241.7 g/ha ([8]; 2 lb/acre) | pest or weed control at 1120.85 g/ha ([10]; 1 lb/acre) | pest or weed control at 4483.4 g/ha ([12]; 4 lb/acre)
40%: pest or weed control at 560.425 g/ha ([9]; 0.5 lb/acre) | pest or weed control at 560.425 g/ha ([10]; 0.5 lb/acre)
80%: pest or weed control at 560.425 g/ha ([5]; 0.5 lb/acre)
10%: pest or weed control at 560.425 g/ha ([6]; 0.5 lb/acre) | pest or weed control at 560.425 g/ha ([12]; 0.5 lb/acre)
